Each compound was assayed on HCV replicon (assay: HCV replicon replication assay (NPTII ELISA)). Conditions: Hepatitis C virus, Huh-7, 72 h, inhibition of HCV replicon replication in Huh-7 HCV replicon-containing cells, three days incubation, NPT level by ELISA; read-out: EC50.
Type: cell-based, Hepatitis C virus (Huh-7 cells)
How it was run: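 Huh-7 cells carrying a Bartenschlager NPTII (neo) HCV replicon, treated 3 days at 37 °C with compound, generally 6 concentrations from 10 to 0.03 micromolar, in equal DMSO across wells. NPTII level, proportional to replication, read by capture ELISA on methanol:acetone-fixed cells; interferon alpha positive control; toxicity scored visually or by MTS.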

Row | Structure (SMILES) | EC50
1 | CCCCCN(C)c1ccc(N(C(N)=O)c2nc(-c3ccc4c(c3)NC(=O)CO4)cs2)cc1C(F)(F)F [Compound 105, 1-(4-(methyl(pentyl)amino)-3-(trifluoromethyl)phenyl)-1-(4-(3-oxo-3,4-dihydro-2H-benzo[b][1,4]oxazin-6-yl)thiazol-2-yl)urea] | 1 to 10 µM
2 | CCCCCOc1ccc(N(C(C)=O)c2nc(C(=O)Nc3cccnc3)cs2)cc1C(F)(F)F [Compound 7, 2-(N-(4-(pentyloxy)-3-(trifluoromethyl)phenyl)acetamido)-N-(pyridin-3-yl)thiazole-4-carboxamide] | 1 to 10 µM
3 | CCCCCOc1ccc(N(C(N)=O)c2nc(-c3ccc(O)c(C(N)=O)c3)cs2)cc1F [Compound 109, 5-(2-(1-(3-fluoro-4-(pentyloxy)phenyl)ureido)thiazol-4-yl)-2-hydroxybenzamide] | 1 to 10 µM
4 | CCCCCN(C)c1ccc(N(C(=O)C(=O)OC)c2nc(-c3cccnc3)cs2)cc1C(F)(F)F [Compound 53, methyl 2-((4-(methyl(pentyl)amino)-3-(trifluoromethyl)phenyl)(4-(pyridin-3-yl)thiazol-2-yl)amino)-2-oxoacetate] | < 1 µM
5 | CCCCCOc1ccc(N(C(=O)Nc2ccccc2)c2nc(-c3cccnc3)cs2)cc1C(F)(F)F [Compound 81, 1-(4-(pentyloxy)-3-(trifluoromethyl)phenyl)-3-phenyl-1-(4-(pyridin-3-yl)thiazol-2-yl)urea] | < 1 µM
6 | CCCCCOc1ccc(N(C(=O)C(=O)OC)c2nc(-c3ccncc3)cs2)cc1C(F)(F)F [Compound 35, methyl 2-oxo-2-((4-(pentyloxy)-3-(trifluoromethyl)phenyl)(4-(pyridin-4-yl)thiazol-2-yl)amino)acetate] | < 1 µM
7 | CCCCCCCCc1ccc(N(C(=O)C(N)C(C)C)c2nc(-c3cccnc3)c(F)s2)cc1C(F)(F)F (stereo not drawn) [Compound 180, 2-amino-N-(5-fluoro-4-(pyridin-3-yl)thiazol-2-yl)-3-methyl-N-(4-octyl-3-(trifluoromethyl)phenyl)butanamide] | < 1 µM
8 | CCCCCCCCOc1ccc(N(C(=O)NC2CCCCC2)c2nc(-c3cccnc3)cs2)cc1 [Compound 88, 3-cyclohexyl-1-(4-(octyloxy)phenyl)-1-(4-(pyridin-3-yl)thiazol-2-yl)urea] | 1 to 10 µM
9 | CCCCOc1ccc(N(C(N)=O)c2nc(-c3ccc(O)c(C(N)=O)c3)cs2)cc1C(F)(F)F [Compound 133, 5-(2-(1-(4-butoxy-3-(trifluoromethyl)phenyl)ureido)thiazol-4-yl)-2-hydroxybenzamide] | < 1 µM
10 | NC(=O)c1cc(-c2csc(N(C(N)=O)c3ccc(OCC4CCCCC4)c(F)c3)n2)ccc1O [Compound 115, 5-(2-(1-(4-(cyclohexylmethoxy)-3-fluorophenyl)ureido)thiazol-4-yl)-2-hydroxybenzamide] | 1 to 10 µM
11 | CCCCCCCCOc1ccc(N(C(=O)NCC(=O)O)c2nc(-c3cccnc3)c(F)s2)cc1C(F)(F)F [Compound 166, 2-(3-(5-fluoro-4-(pyridin-3-yl)thiazol-2-yl)-3-(4-(octyloxy)-3-(trifluoromethyl)phenyl)ureido)acetic acid] | < 1 µM
12 | NC(=O)N(c1ccc(OCC2CCCCC2)c(F)c1)c1nc(-c2ccc(F)c(F)c2)cs1 [Compound 120, 1-(4-(cyclohexylmethoxy)-3-fluorophenyl)-1-(4-(3,4-difluorophenyl)thiazol-2-yl)urea] | < 1 µM
13 | CCCCCOc1ccc(N(C(N)=O)c2nc(-c3ccc4c(c3)NC(=O)CO4)cs2)cc1F [Compound 110, 1-(3-fluoro-4-(pentyloxy)phenyl)-1-(4-(3-oxo-3,4-dihydro-2H-benzo[b][1,4]oxazin-6-yl)thiazol-2-yl)urea] | > 10 µM
14 | CCCCCOc1ccc(N(C(N)=O)c2nc(-c3ccc(F)cc3F)cs2)cc1C(F)(F)F [Compound 86, 1-(4-(2,4-difluorophenyl)thiazol-2-yl)-1-(4-(pentyloxy)-3-(trifluoromethyl)phenyl)urea] | < 1 µM
15 | CCCCCOc1ccc(N(C(=O)C(=O)OC)c2nc(C(=O)Nc3cccnc3)cs2)cc1C(F)(F)F [Compound 30, methyl 2-oxo-2-((4-(pentyloxy)-3-(trifluoromethyl)phenyl)(4-(pyridin-3-ylcarbamoyl)thiazol-2-yl)amino)acetate] | < 1 µM
16 | CCCCCOc1ccc(N(C(C)=O)c2nc(CNC(C)=O)cs2)cc1C(F)(F)F [Compound 29, N-(4-(acetamidomethyl)thiazol-2-yl)-N-(4-(pentyloxy)-3-(trifluoromethyl)phenyl)acetamide] | 1 to 10 µM
17 | CCCCCOc1ccc(N(C(=O)C2CC2)c2nc(-c3cccnc3)cs2)cc1F [Compound 26, N-(3-fluoro-4-(pentyloxy)phenyl)-N-(4-(pyridin-3-yl)thiazol-2-yl)cyclopropanecarboxamide] | < 1 µM
18 | CCCCCOc1ccc(N(C)c2nc(-c3ccc(CN4CCN(C)CC4)nc3)cs2)cc1C(F)(F)F [Compound 10, N-methyl-4-(6-((4-methylpiperazin-1-yl)methyl)pyridin-3-yl)-N-(4-(pentyloxy)-3-(trifluoromethyl)phenyl)thiazol-2-amine] | < 1 µM

Row | Structure (SMILES) | EC50
19 | CCCCCCCCOc1ccc(N(COC(=O)C(C)(C)C)c2nc(-c3cccnc3)c(F)s2)cc1C(F)(F)F [Compound 192, ((5-fluoro-4-(pyridin-3-yl)thiazol-2-yl)(4-(octyloxy)-3-(trifluoromethyl)phenyl)amino)methyl pivalate] | < 1 µM
20 | CCCCCCCCOc1ccc(N(C(N)=O)c2nc(-c3ccncc3)cs2)cc1 [Compound 80, 1-(4-(octyloxy)phenyl)-1-(4-(pyridin-4-yl)thiazol-2-yl)urea] | > 10 µM
21 | CC(C)COc1ccc(N(C(N)=O)c2nc(-c3ccc4c(c3)NC(=O)CO4)cs2)cc1C(F)(F)F [Compound 149, 1-(4-isobutoxy-3-(trifluoromethyl)phenyl)-1-(4-(3-oxo-3,4-dihydro-2H-benzo[b][1,4]oxazin-6-yl)thiazol-2-yl)urea] | < 1 µM
22 | CC(C)COc1ccc(N(C(N)=O)c2nc(-c3ccc(O)c(C(N)=O)c3)cs2)cc1C(F)(F)F [Compound 148, 2-hydroxy-5-(2-(1-(4-isobutoxy-3-(trifluoromethyl)phenyl)ureido)thiazol-4-yl)benzamide] | < 1 µM
23 | CCCCCCCOc1ccc(N(C(=O)C(=O)OC)c2nc(-c3ccc(Cl)s3)cs2)cc1 [Compound 98, methyl 2-((4-(5-chlorothiophen-2-yl)thiazol-2-yl)(4-(heptyloxy)phenyl)amino)-2-oxoacetate] | < 1 µM
24 | CCCCCOc1ccc(N(C(=O)C(C)C)c2nc(-c3ccc(CN(C)C)nc3)cs2)cc1C(F)(F)F [Compound 19, N-(4-(6-((dimethylamino)methyl)pyridin-3-yl)thiazol-2-yl)-N-(4-(pentyloxy)-3-(trifluoromethyl)phenyl)isobutyramide] | 1 to 10 µM
25 | CCCCCCCCOc1ccc(N(C(N)=O)c2nc(-c3ccc(F)cc3)cs2)cc1 [Compound 61, 1-(4-(4-fluorophenyl)thiazol-2-yl)-1-(4-(octyloxy)phenyl)urea] | 1 to 10 µM
26 | CCCCCCCCOc1ccc(N(C(=O)OC)c2nc(-c3ccc(F)cc3)cs2)cc1 [Compound 48, methyl 4-(4-fluorophenyl)thiazol-2-yl(4-(octyloxy)phenyl)carbamate] | 1 to 10 µM
27 | CCCCCCCCOc1ccc(N(C(=O)CN(C)C)c2nc(-c3cccnc3)cs2)cc1C(F)(F)F [Compound 160, 2-(dimethylamino)-N-(4-(octyloxy)-3-(trifluoromethyl)phenyl)-N-(4-(pyridin-3-yl)thiazol-2-yl)acetamide] | < 1 µM
28 | CCCCCCCCc1ccc(N(C(=O)[C@@H](N)C(C)C)c2nc(-c3ccc(O)nc3)cs2)cc1C(F)(F)F [Compound 157, (S)-2-amino-N-(4-(6-hydroxypyridin-3-yl)thiazol-2-yl)-3-methyl-N-(4-octyl-3-(trifluoromethyl)phenyl)butanamide] | 1 to 10 µM
29 | CCCCCCCCOc1ccc(N(C(=O)COC(C)=O)c2nc(-c3cccnc3)cs2)cc1 [Compound 67, 2-((4-(octyloxy)phenyl)(4-(pyridin-3-yl)thiazol-2-yl)amino)-2-oxoethyl acetate] | < 1 µM
30 | NC(=O)N(c1ccc(OCC2CCCCC2)c(F)c1)c1nc(-c2cccnc2)cs1 [Compound 119, 1-(4-(cyclohexylmethoxy)-3-fluorophenyl)-1-(4-(pyridin-3-yl)thiazol-2-yl)urea] | < 1 µM
31 | CCCCCN(C)c1ccc(N(C(N)=O)c2nc(-c3ccc(F)cc3)cs2)cc1C(F)(F)F [Compound 140, 1-(4-(4-fluorophenyl)thiazol-2-yl)-1-(4-(methyl(pentyl)amino)-3-(trifluoromethyl)phenyl)urea] | < 1 µM
32 | CC(C)COc1ccc(N(C(N)=O)c2nc(-c3ccc(F)cc3)cs2)cc1C(F)(F)F [Compound 125, 1-(4-(4-fluorophenyl)thiazol-2-yl)-1-(4-isobutoxy-3-(trifluoromethyl)phenyl)urea] | < 1 µM
33 | CC(C)COc1ccc(N(C(N)=O)c2nc(-c3ccccn3)cs2)cc1C(F)(F)F [Compound 150, 1-(4-isobutoxy-3-(trifluoromethyl)phenyl)-1-(4-(pyridin-2-yl)thiazol-2-yl)urea] | < 1 µM
34 | CCCCCOc1ccc(N(C(=O)C(C)OC(C)=O)c2nc(-c3cccnc3)cs2)cc1C(F)(F)F (stereo not drawn) [Compound 64, 1-oxo-1-((4-(pentyloxy)-3-(trifluoromethyl)phenyl)(4-(pyridin-3-yl)thiazol-2-yl)amino)propan-2-yl acetate] | < 1 µM
35 | CCCCCOc1ccc(N(C(=O)C(=O)OC)c2nc(-c3ccc(F)cc3)cs2)cc1C(F)(F)F [Compound 38, methyl 2-((4-(4-fluorophenyl)thiazol-2-yl)(4-(pentyloxy)-3-(trifluoromethyl)phenyl)amino)-2-oxoacetate] | < 1 µM
36 | CCCCCOc1ccc(N(C(=O)C(C)C)c2nc(-c3cccnc3)cs2)cc1C(F)(F)F [Compound 14, N-(4-(pentyloxy)-3-(trifluoromethyl)phenyl)-N-(4-(pyridin-3-yl)thiazol-2-yl)isobutyramide] | < 1 µM
